Assays:
CD19.28z CAR T cells [1] = assay: 8-plex CAR T SSN-seq ex vivo (infusion product); format: cell-based, human; conditions: 5 μM TWS119, 0.15 μM JQ1; CCR7, SELL, TCF7
Method: Pooled/sorted cells were processed for single-cell RNA sequencing at using Chromium Next GEM Single Cell 3′ Reagent Kit V3.1 (with feature barcoding technology for CRISPR screening), following the manufacturer's protocol. For enrichSSN amplification, a primer specific to the 5′ shield sequence was used (see FIG. 16A) and PCR was performed following 10× Genomics protocol for “Feature PCR” with 15 or 19 amplification cycles. Pooled libraries (the 3′ gene expression library and the sgRNA/SSN library, at a 4:1 ratio) were sequenced with a NovaSeq6000 SP-100 flow cell (Illumina) for each scRNA-seq experiment.
scRNA-seq data were preprocessed. In brief, gene expressing reads were aligned to the GRCh38 genome (human) and/or mm 10 genome (mouse) using the 10× Genomics Cell Ranger (version 6.0.2, 6.1.1 and 6.1.2), with the cellranger count pipeline. sgRNA/SSN counts were retrieved by cellranger count using the pattern containing unique group barcodes and constant sequences derived from the sgRNA/SSN scaffold. […] To ensure a fair quantitative comparison, sgRNA/SSN UMI counts shown across different experiments were restricted to the raw output of cellranger count. Filtered feature-barcode matrices were further analyzed in R using Seurat (version 4.0.3). In general, genes detected in less than three cells and cells expressing <200 or >7,000 RNA features (genes) were filtered out. […]

CD19.28z CAR T cells [2] = assay: Flow cytometry of T cell memory markers CCR7 and CD45RA in 8-plex CAR T cells; format: cell-based, human; conditions: 5 μM TWS119, 0.15 μM JQ1, day 8
Method: 8-plex CAR T SSN-seg ex vivo (infusion product). Twenty-four hours after activation, human primary T cells were transduced with lentiviral vectors (see FIG. 16B). Transduced T cells were cultured in the presence of 5 μM TWS119, 0.15 μM JQ1, the combination of TWS119 and JQ1 (Combo), or DMSO (Mock) controls. CAR T cells in four treatment groups were expanded in culture media supplemented with IL2 or IL7 plus IL15 (denoted as IL7×15) cytokines. Culture media containing small molecule inhibitors and cytokines were replenished every other day. CAR T cells were maintained at a concentration of 0.5 to 1×10^6 cells per ml. On day 8, expression of T cell memory makers (CCR7 and CD45RA) was evaluated in all treatment groups using flow cytometry. Then, CAR T cells in all groups were counted and pooled at equal ratios. To enrich CAR^+ population a cell surface reporter NGFR^+ was utilized to FACS purify CAR T cells before scRNA-seq analysis. Aliquots of the pooled samples were also injected into tumor mice. Remaining CAR T cells were cryopreserved in CryoStor CS10 media (Stem Cell Technologies).

SMILES	enriched genes in transcriptome analysis (CD19.28z CAR T cells [1])	naïve and central memory markers (CCR7, CD45RA) (CD19.28z CAR T cells [2])
Cc1sc2c(c1C)C(c1ccc(Cl)cc1)=N[C@@H](CC(=O)OC(C)(C)C)c1nnc(C)n1-2 [JQ1]	enriched in memory-related genes	enrichment of naïve and central memory markers
Nc1cccc(-c2cc3c(Oc4cccc(O)c4)ncnc3[nH]2)c1 [TWS119]	enriched in memory-related genes	enrichment of naïve and central memory markers

From US20250354297A1, “SHIELDED SMALL NUCLEOTIDES FOR INTRACELLULAR BARCODING” (BOARD OF REGENTS, THE UNIVERSITY OF TEXAS SYSTEM, priority 2021, published 2025)
